Measurements from patent US4316889A, “Novel peptidyl-arginine aldehyde derivatives and process for the preparation thereof” (Richter Gedeon Vegyeszeti Gyar Rt., priority 1979, dated 1982).
Square brackets hold non-standard residues; d marks the D form. Peptide text beside a SMILES is read from it. * marks the point of attachment. d(aIle) = CC[C@H](C)[C@@H](N)C(=O)O; Bz = O=C(c1ccccc1)*

Key:
[1] = test system: thrombin-time; assay: In vivo antithrombin activity after oral administration to dogs, measured in a Thromboelastograph; set-up: species or system dog; conditions: 50 mg./kg., for a period of two hours
Text: (§1) This effect is substantial not only at intravenous, intramuscular and subcutaneous but also at oral administration.

[2] = target: thrombin (Homo sapiens, UniProt P00734); conditions: Hungarian Patent No. 169,870; cited from earlier work
[3] = target: T1, US Standard Human Thrombin (Homo sapiens, UniProt P00734); assay: Antithrombin activity: amount of drug for tenfold increase of the thrombin-time of fibrinogen; format: biochemical; conditions: for Amount of drug required for tenfold increase of thrombin-time following dissolution of peptide, 0 hour: 0 hour after dissolution in TRIS/HCl buffer pH=7.4, bovine fibrinogen, thrombin 5 U/ml; for relative activity (ra), 20 hours: 20 hours in TRIS/HCl buffer, relative to H-D-Phe-Pro-Arg(COOH)-H at 0 hour = 100; for Amount of drug required for tenfold increase of thrombin-time following dissolution of peptide, 20 hours: 20 hours standing in TRIS/HCl buffer pH=7.4; for change of antithrombin potency upon standing in solution: TRIS/HCl buffer, pH=7.4
T1 construct: US Standard Human Thrombin; purchased NIH, Bethesda, Maryland, USA
Procedure: Antithrombin activity is defined by the amount of drug required for a tenfold increase of the thrombin-time of fibrinogen (thrombintime: time of clotting induced by thrombin).
Antithrombin activities were assayed in the following system:
0.5 percent bovine fibrinogen (0.2 ml). in 0.9 percent sodium chloride solution, peptide in TRIS/HCl buffer (0.1 ml., pH=7.4), and US Standard Human Thrombin (0.1 ml.) (NIH, Bethesda, Maryland, USA; 5 U/ml.). The clotting time of the system devoid of peptide is 15 seconds.

[4] = test system: trypsin; conditions: literature (Kawamura et al.; Umezawa); cited from earlier work
[5] = target: plasmin (Homo sapiens, UniProt P00747); conditions: literature (Kawamura et al.; Umezawa); cited from earlier work
[6] = target: T2, papain (Carica papaya, UniProt P00784); conditions: literature (Kawamura et al.; Umezawa); cited from earlier work
T2 sequence (P00784 134-345): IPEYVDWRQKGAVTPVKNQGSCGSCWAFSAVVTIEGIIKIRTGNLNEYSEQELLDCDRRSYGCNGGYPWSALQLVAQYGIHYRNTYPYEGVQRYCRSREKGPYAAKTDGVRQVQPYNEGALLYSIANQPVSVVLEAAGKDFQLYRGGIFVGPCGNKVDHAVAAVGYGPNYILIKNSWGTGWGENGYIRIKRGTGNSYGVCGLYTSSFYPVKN

[7] = test system: thrombin; assay: In vivo trials of antithrombin activity on five species; conditions: mouse, rat, rabbit, dog, monkey; intravenous, intramuscular, subcutaneous and oral administration
Text: as §1

plasmin, sequence (P00747 581-810 limits assumed, species assumed): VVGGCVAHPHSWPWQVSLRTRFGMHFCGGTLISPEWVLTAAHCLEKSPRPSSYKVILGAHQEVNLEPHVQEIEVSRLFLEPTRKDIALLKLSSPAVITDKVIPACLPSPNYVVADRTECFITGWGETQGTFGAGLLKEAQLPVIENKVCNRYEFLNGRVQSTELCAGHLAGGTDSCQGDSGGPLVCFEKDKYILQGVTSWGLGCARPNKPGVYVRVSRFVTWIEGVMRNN
plasmin, sequence (P00747 97-580 partner limits assumed, species assumed): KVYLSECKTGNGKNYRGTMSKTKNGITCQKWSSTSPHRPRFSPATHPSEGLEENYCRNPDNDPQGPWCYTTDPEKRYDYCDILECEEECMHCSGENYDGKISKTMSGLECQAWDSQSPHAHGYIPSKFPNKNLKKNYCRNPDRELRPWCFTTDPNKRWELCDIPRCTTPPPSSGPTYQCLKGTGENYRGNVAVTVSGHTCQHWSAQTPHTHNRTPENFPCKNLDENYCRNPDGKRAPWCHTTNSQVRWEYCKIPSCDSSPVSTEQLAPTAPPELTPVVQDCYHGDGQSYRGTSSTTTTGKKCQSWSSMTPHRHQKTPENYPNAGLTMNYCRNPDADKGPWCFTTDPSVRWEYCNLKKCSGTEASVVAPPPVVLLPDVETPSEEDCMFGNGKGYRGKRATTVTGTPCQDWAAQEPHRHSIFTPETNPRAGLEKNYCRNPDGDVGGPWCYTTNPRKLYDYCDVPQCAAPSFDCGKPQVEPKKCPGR

| Amount of drug required for tenfold increase of thrombin-time following dissolution of peptide, 0 hour [3] [µg/mL] | relative activity (ra), 20 hours [3] | Amount of drug required for tenfold increase of thrombin-time following dissolution of peptide, 20 hours [3] [µg/mL] | change of antithrombin potency upon standing in solution [3] | Compound | increase of thrombin-time in vivo [1] | antithrombin activity (literature) [2] | inhibition of trypsin [4] | inhibition of plasmin [5] | inhibition of papain [6] | other results |
| --- | --- | --- | --- | --- | --- | --- | --- | --- | --- | --- |
| 0.37 to 1.25 | 4 | 6.2 | reduced | CC(=O)O.N=C(N)NCCC[C@@H](C=O)NC(=O)[C@@H]1CCCN1C(=O)[C@H](N)Cc1ccccc1 [H--D-Phe-- Pro--Arg--H . 2 CH3 COOH, D-phenylalanyl-L-prolyl-L-arginine aldehyde acetate] | practically no influence | marked antithrombin activity | – | – | – | – |
| 0.35 to 0.95 | 5 | 6.0 | reduced | Cl.N=C(N)NCCC[C@@H](C=O)NC(=O)[C@@H]1CCCN1C(=O)[C@H](N)Cc1ccccc1 [H--D-Phe-- Pro--Arg--H . 2HCl, D-phenylalanyl-L-prolyl-L-arginine aldehyde hydrochloride] | practically no influence | – | – | – | – | – |
| – | – | – | – | CC(=O)N[C@@H](CC(C)C)C(=O)N[C@@H](CC(C)C)C(=O)N[C@H](C=O)CCCNC(=N)N.Cl [acetyl-L-leucyl-L-leucyl-arginine aldehyde hydrochloride] | – | – | capable to inhibit | capable to inhibit | capable to inhibit | – |
| – | – | – | – | CC[C@H](C)[C@@H](NC(=O)c1ccccc1)C(=O)N1CCC[C@H]1C(=O)N[C@H](C=O)CCCNC(=N)N.Cc1ccc(S(=O)(=O)O)cc1 [benzoyl-D-allo-isoleucyl-L-prolyl-L-arginine aldehyde p-toluenesulfonate] (Bz-[d(aIle)]-Pro-Arg-aldehyde) | – | marked antithrombin activity | – | – | – | – |
| – | – | – | – | CCC(=O)N[C@@H](CC(C)C)C(=O)N[C@@H](CC(C)C)C(=O)N[C@H](C=O)CCCNC(=N)N.Cl [propionyl-L-leucyl-L-leucyl-arginine aldehyde hydrochloride] | – | – | capable to inhibit | capable to inhibit | capable to inhibit | – |

| Compound | Amount of drug required for tenfold increase of thrombin-time following dissolution of peptide, 0 hour [3] [µg/mL] | relative activity (ra), 20 hours [3] | Amount of drug required for tenfold increase of thrombin-time following dissolution of peptide, 20 hours [3] [µg/mL] | change of antithrombin potency upon standing in solution [3] | increase of thrombin-time in vivo [1] | antithrombin activity (literature) [2] | inhibition of trypsin [4] | inhibition of plasmin [5] | inhibition of papain [6] | other results |
| --- | --- | --- | --- | --- | --- | --- | --- | --- | --- | --- |
| D-Phenylalanyl-L-prolyl-N^G -carboxyl-L-arginine aldehyde [H--D-Phe-- Pro--Arg(COOH)--H] | 0.275 | 92 | 0.300 | – | four to sixfold | – | – | – | – | in vivo antithrombin effect [7]: substantial; relative activity (ra), 0 hour ([3]; 0 hour, activity of H-D-Phe-Pro-Arg(COOH)-H arbitrarily taken as 100): 100; antithrombin (enzyme inhibitory) activity compared with the free tripeptide aldehyde salt of corresponding sequence ([3]; thrombin-fibrinogen reaction, versus H-D-Phe-Pro-Arg-H hydrochloride or acetate): higher |
